Assay: in vitro
Conditions: human, hepg2-a16-cd81egfp cells
Also: reference of the scale not given here.

Structure (SMILES) | viability at 3 µM (% viability) | viability at 3 µM
COc1cnc(-c2ccccn2)nc1N(C)c1ccccc1 [MLS001166302] | 90.7% | 
CC[C@]1(c2ccccc2OC)ON(c2ccccc2C(F)(F)F)C1=O [MLS002206607] | 102% | 
O=C(c1ccc([N+](=O)[O-])o1)N1CCN(c2nc3c(Cl)cccc3s2)CC1 [MLS001234208] | 90.1% | 
Cc1ccc(C(=O)Nc2nc(-c3ccccn3)cs2)cc1[S+](=O)([O-])N1CCOCC1 [NCGC00345210] | 29.5% | 
Cc1ccc(-c2cc(C(F)(F)F)n3ncc(C(=O)N4CCCCC4c4cccnc4)c3n2)cc1 (stereo not drawn) [MLS000729132] | 89.9% | 
Cc1ccc(NC(=O)N(Cc2ccc3c(c2)OCO3)Cc2cc3cc4c(cc3[nH]c2=O)OCCO4)cc1 [MLS000033889] | 101% | 
COc1cccc(OCCn2cc(C(=O)c3ccco3)c3ccccc32)c1 [MLS000050800] |  | 106%
Oc1ccccc1Nc1nc(NCc2ccccc2)c2ccccc2n1 [MLS000693415] | 90.9% | 
COC(=O)C1=C(C)NC(C)=C(C(=O)OCCCN2CCC(c3ccccc3)(c3ccccc3)CC2)C1c1cccc([N+](=O)[O-])c1 (stereo not drawn) [NCGC00163135] |  | 81%
C[n+]1c2ccccc2nc2ccc(NCCO)cc21.[O-][Cl+3]([O-])([O-])[O-] [MLS001164888] |  | 97.2%
CCN1CCN(Cc2ccc(NC(=O)c3ccc(C)c(NC(=O)c4cc(-c5ccc(Br)cc5)[nH]n4)c3)cc2C(F)(F)F)CC1 [MLS000911560] | 99% | 
CCOc1ccc(Nc2cc(=O)oc3ccccc23)cc1 [MLS000519261] | 103% | 
Cc1ccc(-c2cc3c(nn2)-c2ccccc2C3=O)cc1 [MLS000104226] | 76.2% | 
COc1cc(O)c(C(CCN2CCCC(C)C2)c2ccc3c(c2)OCO3)c(OC)c1 (stereo not drawn) [MLS000879506] | 97.8% | 
CC(=O)Nc1ccc(Nc2cc(C)nc(Nc3ccc(NC(C)=O)cc3)n2)cc1 [MLS001359830] | 93.2% | 
COc1cccc2sc(N3CCN(C(=O)c4ccc([N+](=O)[O-])o4)CC3)nc12 [MLS001234267] | 93.6% | 
CC(C)(C)OC(=O)N1CCC(CC2CC(c3ccccc3)=NO2)(C(=O)NCc2ccccc2)CC1 (stereo not drawn) [MLS002174287] | 99.3% | 
CC(C)CCN(CCC(C)C)CC(O)Cn1c2ccccc2c(=O)c2ccccc21 (stereo not drawn) [MLS001030199] | 88.6% | 
CCCCN(CC)CCNC(=O)c1cc2c(-c3ccc(Cl)cc3)nn(C)c2s1 [MLS001199341] | 90.6% | 
CCCCCCSc1ccc([C@H]2N[C@@](Cc3ccccc3)(C(=O)OC)[C@H]3C(=O)N(CC)C(=O)[C@@H]23)cc1 [MLS001362744] | 91.8% | 
CC(C)N1CC=C(c2c[nH]c3ccccc23)CC1 [MLS000093714] | 93.1% | 
O=C(NC(c1ccccc1)c1cc(Cl)c2cccnc2c1O)c1cccnc1 (stereo not drawn) [MLS000573359] | 69.7% | 
COc1ccc(Nc2cc(O)c3ncccc3c2)cc1 [NCGC00183797] | 69% | 
Cc1ccc(C(=O)Nc2nc(-c3ccccn3)cs2)cc1S(=O)(=O)N1CCOCC1 [MLS002157637] | 58.9% | 

— PMC7822874, “Chemoprotective antimalarials identified through quantitative high-throughput screening of Plasmodium blood and liver stage parasites” (Scientific Reports, 2021)
